Laboratory results published in ChEMBL document CHEMBL1201862, “PubChem BioAssay data set” (2004).
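Each compound was tested at five concentrations against cells in 96-well plates for 48 hours. Here, GI50 denotes the concentration required for 50% inhibition of growth.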 The source made the active and inactive calls. No stated cut-off is given here; in the data, active = GI50 up to about 1.1 µM and inactive = higher.

How the values were obtained:
Test in all cases: DTP human tumour cell line panel, 48 h
[1] = test system: OVCAR-5
[2] = test system: CCRF-CEM
[3] = test system: RXF 393
[4] = test system: OVCAR-8
[5] = test system: ACHN
[6] = test system: SF-295
[7] = test system: HOP-62
[8] = test system: EKVX
[9] = test system: SF-268
[10] = test system: SK-OV-3
[11] = test system: U-251
[12] = test system: T47D
[13] = test system: SF-539
[14] = test system: LOX IMVI
[15] = test system: DU-145
[16] = test system: SNB-75
[17] = test system: A498
[18] = test system: HT-29
[19] = test system: HL-60
[20] = test system: SR

SMILES | GI50 [1] | GI50 [2] | GI50 [3] | GI50 [4] | GI50 [5] | GI50 [6] | GI50 [7] | GI50 [8] | GI50 [9] | GI50 [10] | GI50 [11] | GI50 [12] | GI50 [13] | GI50 [14] | GI50 [15] | GI50 [16] | GI50 [17] | GI50 [18] | GI50 [19] | GI50 [20]
COc1cc(Nc2cc(Cl)cc(Cl)c2)nc(N)n1 | 40 µM (inactive) | 17.6 µM (inactive) | 14.5 µM (inactive) | 18.9 µM (inactive) | 18.9 µM (inactive) | 18.6 µM (inactive) | 17.5 µM (inactive) | 6.11 µM (inactive) | 19.5 µM (inactive) | 27.5 µM (inactive) | 15.2 µM (inactive) | 24.6 µM (inactive) | 15.7 µM (inactive) | 16.3 µM (inactive) | 18.8 µM (inactive) | 15.5 µM (inactive) | 21.9 µM (inactive) | 17.8 µM (inactive) |  | 
CCOC(=O)/C(C(=O)Nc1ccc(Cl)cc1)=C(/N)N1CCOCC1 | > 100 µM (inactive) | > 100 µM (inactive) | > 100 µM (inactive) | > 100 µM (inactive) | > 100 µM (inactive) | > 100 µM (inactive) | > 100 µM (inactive) | > 100 µM (inactive) | > 100 µM (inactive) | > 100 µM (inactive) | > 100 µM (inactive) | > 100 µM (inactive) | > 100 µM (inactive) | > 100 µM (inactive) | > 100 µM (inactive) | > 100 µM (inactive) | > 100 µM (inactive) | > 100 µM (inactive) | > 100 µM (inactive) | 
COC(=O)[C@H]1C=NN[C@@H]1C(=O)N1[C@H]2CC3CC[C@@]2(CS1(=O)=O)C3(C)C | > 100 µM (inactive) | > 100 µM (inactive) |  | > 100 µM (inactive) | > 100 µM (inactive) | > 100 µM (inactive) | > 100 µM (inactive) | > 100 µM (inactive) | > 100 µM (inactive) | > 100 µM (inactive) | > 100 µM (inactive) |  | > 100 µM (inactive) | > 100 µM (inactive) | > 100 µM (inactive) |  | > 100 µM (inactive) |  | > 100 µM (inactive) | > 100 µM (inactive)
C=CCOC(=O)C1=C(CCC[C@@H](C)O[Si](C)(C)C(C)(C)C)N=C(N)N2[C@H](CCO)CC[C@@H]12 |  |  |  |  | 17.7 µM (inactive) | 12.6 µM (inactive) | 14.1 µM (inactive) |  | 17.3 µM (inactive) | 14.1 µM (inactive) | 12.3 µM (inactive) | 11.8 µM (inactive) |  |  | 14.3 µM (inactive) | 16.4 µM (inactive) | 18 µM (inactive) |  |  | 
CC1SC(=O)SC1C (configuration not stated) | > 100 µM (inactive) | > 100 µM (inactive) |  | > 100 µM (inactive) | > 100 µM (inactive) | > 100 µM (inactive) | > 100 µM (inactive) | > 100 µM (inactive) | > 100 µM (inactive) | > 100 µM (inactive) | > 100 µM (inactive) | > 100 µM (inactive) | > 100 µM (inactive) |  |  | > 100 µM (inactive) |  |  | > 100 µM (inactive) | > 100 µM (inactive)
COc1cc2c(c3nc4ccccc4nc13)-c1ccc(SC)c(=O)cc1[C@@H](NC(C)=O)CC2 |  | 0.0601 µM (active) | > 100 µM (inactive) | 0.0815 µM (active) | 1.15 µM (inactive) | 0.216 µM (active) | 0.405 µM (active) | 0.0525 µM (active) | 0.144 µM (active) | 0.266 µM (active) | 0.0345 µM (active) |  | 0.0248 µM (active) | 0.0542 µM (active) | 0.129 µM (active) | 0.0313 µM (active) | 0.82 µM (active) | 0.0364 µM (active) |  | 0.0158 µM (active)
COc1ccc(N[S+]([O-])C2CCCCC2)cc1 (configuration not stated) | > 100 µM (inactive) | > 100 µM (inactive) | > 100 µM (inactive) | > 100 µM (inactive) | > 100 µM (inactive) | > 100 µM (inactive) | 91.8 µM (inactive) | > 100 µM (inactive) | > 100 µM (inactive) |  | > 100 µM (inactive) |  | > 100 µM (inactive) | > 100 µM (inactive) | > 100 µM (inactive) | > 100 µM (inactive) |  | > 100 µM (inactive) | > 100 µM (inactive) | > 100 µM (inactive)
